What was measured:
[1] = Trans/cis ratio (Kt/c) of prolyl amide isomers by 500 MHz NMR; format: physicochemical
Description: For each of 11-13, the ratio of trans/cis isomers was calculated by integrating as many well-resolved peaks as possible for each isomer, and taking the average of over all peaks for respective isomers (Taylor et al., 2003). The assignment of N-terminal amide geometry for both major and minor isomers of 11-16 was based on multiple GOESY experiments (Stronehouse et al., 1994).
Experiments were undertaken to determine the Kt/c effect of certain fused bicyclic sugar-proline-containing peptides. A very similar profile of Kt/c for the Ac-Gly-GlcPro-NHMe model compounds 14-16 compared to the Ac-GlcPro-NHMe model compounds 11-13 (Table 1) was observed. In CD3OD, there was an increase in the cis-content as the sugar substituent changed from benzyl 14 (<3%), to hydroxyl 15 (15%), to acetate 16 (25%).

[2] = D2O; n.s. = not soluble (footnote b)

| SMILES | % cis isomer ([1]; CD3OD, 500 MHz NMR at 25° C.) [%] | Trans/cis ratio (Kt/c) ([1]; CD3OD, 500 MHz NMR at 25° C.) | % cis isomer ([1]; CDCl3, 500 MHz NMR at 25° C.) [%] | Trans/cis ratio (Kt/c) ([1]; CDCl3, 500 MHz NMR at 25° C.) | solubility in solvent [2] | % cis isomer ([1]; D2O, 500 MHz NMR at 25° C.) [%] | Trans/cis ratio (Kt/c) ([1]; D2O, 500 MHz NMR at 25° C.) |
| --- | --- | --- | --- | --- | --- | --- | --- |
| CNC(=O)[C@@H]1C[C@H]2O[C@H](COCc3ccccc3)[C@H](OCc3ccccc3)[C@@H](OCc3ccccc3)[C@H]2N1C(=O)CNC(C)=O [Compound 14, N-Acetyl-glycyl-(2S,3aR,5R,6R,7S,7aS)-6,7-di-O-benzyl-octahydro-5-(phenylmethyl hydroxymethyl)-pyrano[3,2-b]pyrrole-2-carboxamide N′-methylamide] | < 3 | > 30 | 5 | 19 | n.s.^[b] | – | – |
| CNC(=O)[C@@H]1C[C@H]2O[C@H](CO)[C@H](O)[C@@H](O)[C@@H]2N1C(=O)CNC(C)=O [Compound 15, N-Acetyl-glycyl-(2S,3aR,5R,6R,7S,7aS)-6,7-dihydroxy-5-(hydroxymethyl)-octahydro-pyrano[3,2-b]pyrrole-2-carboxamide N′-methylamide] | 15 | 5.7 | – | – | – | 10 | 9 |
| CNC(=O)[C@@H]1C[C@H]2O[C@H](COC(C)=O)[C@H](OC(C)=O)[C@@H](OC(C)=O)[C@H]2N1C(=O)CNC(C)=O [Compound 16, N-Acetyl-glycyl-(2S,3aR,5R,6R,7S,7aS)-6,7-di-O-acetyl-5-(hydroxymethyl-O-acetyl)-octahydro-pyrano[3,2-b]pyrrole-2-carboxamide N′-methylamide] | 25 | 3 | 20 | 4 | – | – | – |

— US7951905B2, “Synthesis of carbohydrate-templated amino acids and methods of using same” (University of Manitoba, priority 2006, dated 2011)
